Test results taken from patent US8759357B2, “Inhibitors of fatty acid binding protein (FABP)” (Merck Sharp & Dohme Corp., priority 2009, dated 2014).

What was measured:
FABP4 = FABP4 (Homo sapiens, UniProt P15090); assay: TdF (Temperature Dependence Fluorescence) thermal shift assay for FABP4; assay type: binding; conditions: 3 μM protein; 15, 50 or 100 μM compound; Kd from ΔTm
From the text: TdF (Temperature Dependence Fluorescence) Assay for FABP3 and FABP4
The SAR (Structure Activity Relationship) for FABP3 and FABP4 ligands covered by this invention was interrogated using the TdF (Temperature Dependence Fluorescence) assay or best known as thermal shift assay (M. W. Pantoliana et al, J. Biomol. Screen 6 (2001) 429-440). The TdF assay was mainly conducted in the 96-well based CHROMO-4 real time fluorescence plate reader (BioRad). The Sypro Orange (Sigma-Aldrich), environmentally sensitive fluorescence dye, was used to monitor the protein folding-unfolding transition. Protein-ligand binding was gauged by the change (or shift) in the unfolding transition temperature (ΔTm) acquired at protein alone with respect to protein in the presence of ligand of interest.
The compound of interest was first prepared in DMSO stock (typical concentration: 10 mM). Sample of 20 μL was then added into the 96-well PCR plate, where it consisted of 3 μM protein (FABP4 or FABP3) and 15, 50 or 100 μM compound (depending on compound's solubility) in buffer (25 mM HEPES, 150 mM NaCl, pH=7.5 and 1 mM DTT) incorporated with Sypro Orange dye (5× final concentration). Final percentage of DMSO resided in the sample was 2%. The sample plate was heated from 30° C. to 90° C. with thermal ramping rate of 1° C./min. The fluorescence signals were acquired with excitation and emission wavelengths centered at 490 and 560 nm respectively. The instrument thermal stability was ±0.2° C. The melting Temperatures™ for FABP4 and FABP3 proteins under aforementioned conditions occurred at 61.0±0.2° C. and 64.8±0.2° C. respectively.
Theoretical Basis for TdF-Based Ligand Binding Affinity Constant
The derivation of TdF-based ligand binding affinity constant (Kd) followed closely those previously formulated by Brandts and Lin, Biochemistry 29 (1990) 6927-6940. In brief, the binding constant of the ligand at the Tm is expressed as below:
[formula] where T0 is the midpoint of unfolding for unliganded protein and Tm is the midpoint of unfolding in presence of ligand. [LTm] is free ligand at Tm. The ΔHu and ΔCpu are the enthalpy of unfolding and heat capacity change of unfolding for the protein respectively. The ΔCPu is proportional to the size of protein and is an approximate quantity in the above equation (empirically, ΔCpu=(MW of protein/115)*14 cal/mol*K). Following algorithm derived by Mayhood et al, (Analytical Biochemistry 345 (2005) 187-197), the T0 and ΔHu can be determined separately from nonlinear regression fitting the temperature dependent protein alone curve to the following equation: […]
Where F(T) is the observed fluorescence intensity at any temperature T, Yn and Yu are the predicted fluorescence intensities for fully folded and unfolded protein, respectively; mn and mu are slope correction for changes in Yn and Yu with respect to changes in temperature (analogously replace T0 with Tm in the above equation for liganded protein to yield Tm). The nonlinear regression fitting in general readily reaches convergence by properly constraining the initial values for the fitting parameters (e.g. the initial “guess” for the ΔHu was constrained to 120 kcal/mol; initial Yn and mn were set to 1 and zero to best represent the melting curve along the low temperature region; negative slope of −0.5 was initially chosen for mu; initial Tm was also constrained to 50° C.).
Finally, the ligand binding affinity constant at any temperature T 25° C.) can be thermodynamically connected to the preceding KL™ via
[formula] (see Brandts et al and Mayhood et al, shown above) where ΔHL (T) is the van't Hoff enthalpy of ligand binding at temperature T and ΔCpL is the heat capacity upon ligand binding. For simplicity, the ΔCpL and ΔHL (T) were set to zero and −7 kcal/mol respectively. […]

FABP5 = FABP5 (Homo sapiens, UniProt Q01469); assay: TdCD (Temperature-Dependent Circular Dichroism) assay for FABP5; assay type: binding; conditions: compounds at 50 μM and 25 μM; Kd calculated at T=20° C.; 50% uncertainty
Sequence of FABP5 (Q01469 whole entry): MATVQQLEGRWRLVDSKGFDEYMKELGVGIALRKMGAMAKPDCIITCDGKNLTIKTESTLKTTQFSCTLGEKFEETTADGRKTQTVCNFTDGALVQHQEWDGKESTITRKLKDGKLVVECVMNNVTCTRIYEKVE
From the text: [formula] (see Brandts et al and Mayhood et al, shown above) where ΔHL (T) is the van't Hoff enthalpy of ligand binding at temperature T and ΔCpL is the heat capacity upon ligand binding. For simplicity, the ΔCpL and ΔHL (T) were set to zero and −7 kcal/mol respectively. (The ΔCpL accounts for minimal portion of total protein-ligand binding energetics and is therefore set to zero (For example, see Hossein Naghibi et al, Proc. Natl. Acad. Sci. 92, 5597-5599 (1995), where ΔCpL was estimated to ˜2% of ΔHL at 25° C. obtained from calorimetric study of binding Rnase A and 2′-CMP)). TdCD (Temperature-Dependent Circular Dichroism) Assay for FABP3/4/5
JASCO 810 spectropolarimeter was used to measure Circular Dichroism (CD) spectra and temperature-dependent protein unfolding profiles. The instrument is equipped with a 6-cell piezoelectric temperature controller. Ellipticity was monitored at 226 nm as a function of temperature with a 1 mm path length cell. The scan rate was 1° C./min with a 4 s response time and 30 s equilibration between measurements.
Stock protein FABP5 (3.5 mgs/mL), FABP4 (1.8 mgs/mL) and FABP3 (3 mgs/mL) were diluted to 10-15 μM with 25 mM HEPES pH 7.5, 150 mM NaCl, 1 mM DTT. 10 mM stocks of individual compounds were made in 100% DMSO. The compounds were tested at 50 μM and 25 μM concentrations. DMSO was added to protein-alone (apo) samples to 1% to compensate for DMSO amounts in protein+ligand samples. Data were analyzed using Jasco software and the midpoints of the protein unfolding Transitions™, and the ligand binding constants (KL) were calculated as previously described (See, for example, Mayhood et al, Analytical Biochemistry 345 (2005) 187-197; Smith et al, Biochemistry 46 (2007) 1358-1367; Brandts et al, Biochemistry 29 (1990) 6927-6940; and Matulis et al, Biochemistry 44 (2005) 5258-5266).
Briefly, the To (midpoint of unfolding for the unliganded protein) was calculated from best fit of the unfolding data to the equation below:
[formula] Where, Yobs is the observed ellipticity value at any temperature T, Yn and Yu are the predicted ellipticity values for fully folded and unfolded species, respectively, mn and mu are slope correction for changes in Yn and Yu with respect to changes in temperature. To is the midpoint temperature at which the unliganded protein unfolds and ΔHu and ΔCpu are the heat of unfolding and heat capacity of unfolding, respectively for the unliganded species.
In presence of ligand, the midpoint Temperature™ defines where the equilibrium concentrations of unfolded and folded species are equal. Incorporation of the unliganded free energy of binding and subsequent thermodynamic substitution yielded the binding constant of the ligand at the Tm value of unfolding:
[formula] where, T0 is the midpoint of unfolding for unliganded protein and Tm is the midpoint of unfolding in presence of ligand. [LTm] is free ligand at Tm.
Based on estimates for enthalpy of binding, ΔHL (estimated to be −7 kcal/mol) and ligand binding heat capacity ΔCpL (set to be zero), the ligand binding association constant (KL) at temperature T=20° C. were calculated as below. Based on reasonable boundary change of the estimated ligand binding ΔHL, a 50% uncertainty was uniformly assigned to the calculated TdCD Kd (1/KL) values at T=20° C.

Sequence of FABP4 (P15090 whole entry): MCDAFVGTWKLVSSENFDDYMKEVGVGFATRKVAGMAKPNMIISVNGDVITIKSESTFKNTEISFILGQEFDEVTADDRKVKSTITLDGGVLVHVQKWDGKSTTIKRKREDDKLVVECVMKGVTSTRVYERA

O=c1cc(COCc2cccc(Cl)c2Cl)[nH]c2nc(-c3ccccc3)nn12 [1-145]
Kd (FABP4): 200 to 5000 nM | Kd (FABP5): 500 to 100000 nM

O=c1cc(CNC2(c3cccc(C(F)(F)F)c3)CC2)[nH]c2nc(-c3ccccc3)nn12 [1-137]
Kd (FABP4): 200 to 5000 nM | Kd (FABP5): 500 to 100000 nM

CCC(OCc1cc(=O)n2nc(-c3ccccc3)nc2[nH]1)c1ccccc1Cl (stereo not shown) [1-153]
Kd (FABP4): 1 to 200 nM | Kd (FABP5): 500 to 100000 nM

O=c1cc(COCc2ccccc2C(F)(F)F)[nH]c2nc(-c3ccccc3)nn12 [1-140]
Kd (FABP4): > 5000 nM | Kd (FABP5): 500 to 100000 nM

[2H]C([2H])([2H])OC(C(=O)NCC1(c2ccc(Cl)cc2)CCC1)(C([2H])([2H])[2H])C([2H])([2H])c1cc(=O)n2nc(-c3ccccc3)nc2[nH]1 (stereo not shown) [37-2]
Kd (FABP4): 1 to 200 nM | Kd (FABP5): 500 to 100000 nM

CC(C)(Cc1ccccc1)OCc1cc(=O)n2nc(-c3ccccc3)nc2[nH]1 [1-120]
Kd (FABP4): 1 to 200 nM | Kd (FABP5): 500 to 100000 nM

O=c1cc(COCc2cccnc2F)[nH]c2nc(-c3ccccc3)nn12 [1-127]
Kd (FABP4): 200 to 5000 nM | Kd (FABP5): 500 to 100000 nM

O=c1cc(CNCC2(c3cccc(C(F)(F)F)c3)CC2)[nH]c2nc(-c3ccccc3)nn12 [1-138]
Kd (FABP4): 200 to 5000 nM | Kd (FABP5): 500 to 100000 nM

CC(OCc1cc(=O)n2nc(-c3ccccc3)nc2[nH]1)c1ccccc1Cl (stereo not shown) [1-117]
Kd (FABP4): 1 to 200 nM | Kd (FABP5): 500 to 100000 nM

C=CCC(OCc1cc(=O)n2nc(-c3ccccc3)nc2[nH]1)c1ccccc1Cl (stereo not shown) [1-130]
Kd (FABP4): 1 to 200 nM | Kd (FABP5): 500 to 100000 nM

CC(Cc1cc(=O)n2nc(-c3ccccc3)nc2[nH]1)(Oc1cccc(Cl)c1)C(=O)O (stereo not shown) [35-4]
Kd (FABP4): > 5000 nM | Kd (FABP5): 500 to 100000 nM

O=c1cc(COCc2ccccc2Cl)[nH]c2nc(-c3ccccc3)nn12 [1-154]
Kd (FABP4): 1 to 200 nM | Kd (FABP5): 500 to 100000 nM

CN(Cc1ccc(C(F)(F)F)cc1)Cc1cc(=O)n2nc(-c3ccccc3)nc2[nH]1 [1-53]
Kd (FABP4): 200 to 5000 nM | Kd (FABP5): 500 to 100000 nM

O=c1cc(COC(CO)c2ccccc2Cl)[nH]c2nc(-c3ccccc3)nn12 (stereo not shown) [34-2]
Kd (FABP4): > 5000 nM | Kd (FABP5): 500 to 100000 nM

CC(OCc1cc(=O)n2nc(-c3ccccc3)nc2[nH]1)c1ccccc1F (stereo not shown) [1-132]
Kd (FABP4): 200 to 5000 nM | Kd (FABP5): 500 to 100000 nM

O=c1cc(COC(c2ccccc2)C2CC2)[nH]c2nc(-c3ccccc3)nn12 (stereo not shown) [1-116]
Kd (FABP4): 200 to 5000 nM | Kd (FABP5): 500 to 100000 nM

O=c1cc(COCC2(c3cccc(F)c3)CC2)[nH]c2nc(-c3ccccc3)nn12 [1-119]
Kd (FABP4): 1 to 200 nM | Kd (FABP5): 500 to 100000 nM

CCC[C@H](OCc1cc(=O)n2nc(-c3ccccc3)nc2[nH]1)c1ccccc1 [1-122]
Kd (FABP4): > 5000 nM | Kd (FABP5): 500 to 100000 nM

COC(C)(Cc1cc(=O)n2nc(-c3ccccc3)nc2[nH]1)C(=O)NCC1(c2ccc(Cl)cc2)CCC1 (stereo not shown) [36-2]
Kd (FABP4): 1 to 200 nM | Kd (FABP5): 500 to 100000 nM

O=c1cc(COCC(O)c2ccccc2Cl)[nH]c2nc(-c3ccccc3)nn12 (stereo not shown) [34-1]
Kd (FABP4): > 5000 nM | Kd (FABP5): 500 to 100000 nM

O=c1cc(COCC2CCCCC2)[nH]c2nc(-c3ccccc3)nn12 [1-125]
Kd (FABP4): 1 to 200 nM | Kd (FABP5): 500 to 100000 nM

O=c1cc(COCc2cccnc2Cl)[nH]c2nc(-c3ccccc3)nn12 [1-128]
Kd (FABP4): 200 to 5000 nM | Kd (FABP5): 500 to 100000 nM

Cc1ccccc1OC(C)(C)COCc1cc(=O)n2nc(-c3ccccc3)nc2[nH]1 [27-4]
Kd (FABP4): 1 to 200 nM | Kd (FABP5): 500 to 100000 nM

O=c1cc(COC(CC2CC2)c2ccccc2)[nH]c2nc(-c3ccccc3)nn12 (stereo not shown) [1-126]
Kd (FABP4): 200 to 5000 nM | Kd (FABP5): 500 to 100000 nM

O=C(O)c1cccc(COCc2cc(=O)n3nc(-c4ccccc4)nc3[nH]2)c1 [1-133]
Kd (FABP4): 200 to 5000 nM | Kd (FABP5): 500 to 100000 nM

O=c1cc(COCc2ccccc2)[nH]c2nc(-c3ccccc3)nn12 [1-144]
Kd (FABP4): 200 to 5000 nM | Kd (FABP5): 500 to 100000 nM

CC(OCc1cc(=O)n2nc(-c3ccccc3)nc2[nH]1)C1CCCCC1 (stereo not shown) [1-124]
Kd (FABP4): 1 to 200 nM | Kd (FABP5): 500 to 100000 nM

Cc1c(Cl)cccc1OC(C)(C)COCc1cc(=O)n2nc(-c3ccccc3)nc2[nH]1 [27-3]
Kd (FABP4): 1 to 200 nM | Kd (FABP5): 500 to 100000 nM

CC[C@H](OCc1cc(=O)n2nc(-c3ccccc3)nc2[nH]1)c1ccccc1 [1-123]
Kd (FABP4): > 5000 nM | Kd (FABP5): 500 to 100000 nM

CC(Cc1cc(=O)n2nc(-c3ccccc3)nc2[nH]1)(Oc1cccc(Cl)c1)C(=O)NCC1(c2ccccc2Cl)CC1 (stereo not shown) [35-5]
Kd (FABP4): 1 to 200 nM | Kd (FABP5): 500 to 100000 nM

O=c1cc(COCC2(c3cccc(C(F)(F)F)c3)CC2)[nH]c2nc(-c3ccccc3)nn12 [1-129]
Kd (FABP4): 1 to 200 nM | Kd (FABP5): 500 to 100000 nM

CCC(OCc1cc(=O)n2nc(-c3ccccc3)nc2[nH]1)C1CCCCC1 (stereo not shown) [1-121]
Kd (FABP4): 1 to 200 nM | Kd (FABP5): 500 to 100000 nM
